# The kinase profiling compilation of Christmann-Franck et al. (2016)
# Key:
# Experiment in all cases: KINOMEscan competition binding
# [1] = molecular target: CLK3 (human) (UniProt P49761); details: compound 10.0 µM
# [2] = molecular target: CDK16 (human) (UniProt Q00536); details: compound 10.0 µM
# [3] = molecular target: MAPK8 (human) (UniProt P45983); details: compound 10.0 µM
# [4] = molecular target: CLK1 (human) (UniProt P49759); details: compound 10.0 µM
# [5] = molecular target: STK16 (human) (UniProt O75716); details: compound 10.0 µM
# [6] = molecular target: GSK3A (human) (UniProt P49840); details: compound 10.0 µM
# [7] = molecular target: PIP5K1A (human) (UniProt Q99755); details: compound 10.0 µM
# Chain of PIP5K1A (human) (Q99755 whole entry, looked up): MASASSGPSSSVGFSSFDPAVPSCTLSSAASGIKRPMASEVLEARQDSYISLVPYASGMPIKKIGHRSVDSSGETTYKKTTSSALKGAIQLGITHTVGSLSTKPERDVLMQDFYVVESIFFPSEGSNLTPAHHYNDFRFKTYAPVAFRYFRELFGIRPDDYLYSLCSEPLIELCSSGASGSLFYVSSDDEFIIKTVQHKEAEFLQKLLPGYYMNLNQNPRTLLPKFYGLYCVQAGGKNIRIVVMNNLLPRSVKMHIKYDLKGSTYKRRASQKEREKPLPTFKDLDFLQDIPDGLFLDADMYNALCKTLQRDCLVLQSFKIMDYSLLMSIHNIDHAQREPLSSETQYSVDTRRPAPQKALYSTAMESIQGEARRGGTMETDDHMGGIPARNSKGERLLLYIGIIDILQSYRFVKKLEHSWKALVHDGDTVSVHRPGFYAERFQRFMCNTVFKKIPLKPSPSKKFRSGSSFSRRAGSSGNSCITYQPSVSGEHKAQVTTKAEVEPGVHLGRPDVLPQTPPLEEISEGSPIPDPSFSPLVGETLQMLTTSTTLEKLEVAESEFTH
# [8] = molecular target: DCLK3 (human) (UniProt Q9C098); details: compound 10.0 µM
# Chain of DCLK3 (human) (Q9C098 whole entry, looked up): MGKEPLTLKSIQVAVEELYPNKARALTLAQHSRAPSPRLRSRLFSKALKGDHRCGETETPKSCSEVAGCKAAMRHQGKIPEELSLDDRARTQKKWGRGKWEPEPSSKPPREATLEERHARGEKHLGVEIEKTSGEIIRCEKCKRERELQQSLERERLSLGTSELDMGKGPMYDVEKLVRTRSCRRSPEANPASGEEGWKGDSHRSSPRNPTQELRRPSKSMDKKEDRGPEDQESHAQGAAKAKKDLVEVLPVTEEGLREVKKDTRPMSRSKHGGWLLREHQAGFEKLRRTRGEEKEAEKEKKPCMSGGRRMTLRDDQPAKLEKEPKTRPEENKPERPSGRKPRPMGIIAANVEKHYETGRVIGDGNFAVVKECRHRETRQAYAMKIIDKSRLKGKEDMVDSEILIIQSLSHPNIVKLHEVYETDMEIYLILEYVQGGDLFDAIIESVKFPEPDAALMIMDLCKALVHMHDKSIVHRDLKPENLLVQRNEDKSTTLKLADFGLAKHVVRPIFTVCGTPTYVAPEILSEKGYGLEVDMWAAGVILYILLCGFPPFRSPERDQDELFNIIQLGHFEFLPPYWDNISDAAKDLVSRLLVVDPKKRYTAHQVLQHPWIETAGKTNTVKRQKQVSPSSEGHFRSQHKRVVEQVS
# [9] = molecular target: PRKD1 (human) (UniProt Q15139); details: compound 10.0 µM
# Chain of PRKD1 (human) (Q15139 whole entry, looked up): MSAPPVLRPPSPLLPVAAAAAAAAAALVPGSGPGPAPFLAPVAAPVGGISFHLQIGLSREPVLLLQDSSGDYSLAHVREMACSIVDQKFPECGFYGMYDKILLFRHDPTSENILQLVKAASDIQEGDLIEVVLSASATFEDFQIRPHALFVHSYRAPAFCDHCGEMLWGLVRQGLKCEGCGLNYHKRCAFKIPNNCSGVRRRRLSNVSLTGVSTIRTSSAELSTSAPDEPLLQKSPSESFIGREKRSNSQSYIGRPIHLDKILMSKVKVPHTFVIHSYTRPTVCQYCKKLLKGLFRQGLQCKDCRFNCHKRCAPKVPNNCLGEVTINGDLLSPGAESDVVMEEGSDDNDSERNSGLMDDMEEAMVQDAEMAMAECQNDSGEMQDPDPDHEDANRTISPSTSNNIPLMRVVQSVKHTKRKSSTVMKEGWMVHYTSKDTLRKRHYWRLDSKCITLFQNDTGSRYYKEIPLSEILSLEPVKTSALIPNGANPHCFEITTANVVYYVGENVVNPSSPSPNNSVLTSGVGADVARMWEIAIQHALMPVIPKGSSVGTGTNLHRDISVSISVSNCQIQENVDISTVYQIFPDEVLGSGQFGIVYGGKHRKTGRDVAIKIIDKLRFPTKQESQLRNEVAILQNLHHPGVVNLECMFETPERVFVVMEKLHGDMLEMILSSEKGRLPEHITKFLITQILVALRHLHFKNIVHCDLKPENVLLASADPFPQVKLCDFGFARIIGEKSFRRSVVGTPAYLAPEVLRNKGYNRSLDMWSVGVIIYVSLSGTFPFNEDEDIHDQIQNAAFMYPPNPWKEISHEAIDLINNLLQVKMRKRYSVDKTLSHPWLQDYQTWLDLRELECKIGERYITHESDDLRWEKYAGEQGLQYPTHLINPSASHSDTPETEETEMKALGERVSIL
# [10] = molecular target: RIOK3 (human) (UniProt O14730); details: compound 10.0 µM
# Chain of RIOK3 (human) (O14730 whole entry, looked up): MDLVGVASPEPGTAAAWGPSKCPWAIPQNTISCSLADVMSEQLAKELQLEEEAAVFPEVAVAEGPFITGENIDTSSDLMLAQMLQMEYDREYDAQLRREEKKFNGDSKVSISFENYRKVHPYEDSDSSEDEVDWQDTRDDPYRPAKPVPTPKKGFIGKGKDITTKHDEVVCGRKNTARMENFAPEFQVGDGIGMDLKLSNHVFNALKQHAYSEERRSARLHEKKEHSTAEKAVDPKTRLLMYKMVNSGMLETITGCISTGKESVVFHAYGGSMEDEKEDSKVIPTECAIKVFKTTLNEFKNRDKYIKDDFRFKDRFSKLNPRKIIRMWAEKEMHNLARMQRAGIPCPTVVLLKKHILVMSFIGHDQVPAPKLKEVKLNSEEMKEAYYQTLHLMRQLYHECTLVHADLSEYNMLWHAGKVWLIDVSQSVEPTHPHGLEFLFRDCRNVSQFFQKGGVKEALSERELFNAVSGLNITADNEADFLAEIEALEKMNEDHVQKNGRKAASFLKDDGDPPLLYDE
# [11] = molecular target: MAP4K2 (human) (UniProt Q12851); details: compound 10.0 µM
# Chain of MAP4K2 (human) (Q12851 whole entry, looked up): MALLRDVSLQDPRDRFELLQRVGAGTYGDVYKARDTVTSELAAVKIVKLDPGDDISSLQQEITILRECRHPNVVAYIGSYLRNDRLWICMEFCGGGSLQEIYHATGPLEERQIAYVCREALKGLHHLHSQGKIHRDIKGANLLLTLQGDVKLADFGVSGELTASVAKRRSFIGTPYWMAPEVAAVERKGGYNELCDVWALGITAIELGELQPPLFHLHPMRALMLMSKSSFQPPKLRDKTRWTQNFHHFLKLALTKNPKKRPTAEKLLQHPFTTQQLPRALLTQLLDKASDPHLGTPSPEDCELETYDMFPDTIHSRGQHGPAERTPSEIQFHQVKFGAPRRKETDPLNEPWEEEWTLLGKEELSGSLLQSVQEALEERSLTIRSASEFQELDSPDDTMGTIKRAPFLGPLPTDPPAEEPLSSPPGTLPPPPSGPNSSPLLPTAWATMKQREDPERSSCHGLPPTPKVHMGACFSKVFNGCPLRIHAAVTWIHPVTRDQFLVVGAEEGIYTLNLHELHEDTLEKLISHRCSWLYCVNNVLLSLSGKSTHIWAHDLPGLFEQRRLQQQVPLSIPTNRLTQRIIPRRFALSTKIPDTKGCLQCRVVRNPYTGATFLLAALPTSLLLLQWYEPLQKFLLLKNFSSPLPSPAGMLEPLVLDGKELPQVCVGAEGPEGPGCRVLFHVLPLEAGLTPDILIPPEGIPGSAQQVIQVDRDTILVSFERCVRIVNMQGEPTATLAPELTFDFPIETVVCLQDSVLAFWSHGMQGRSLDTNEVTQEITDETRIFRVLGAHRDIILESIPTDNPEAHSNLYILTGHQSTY
# [12] = molecular target: STK11 (human) (UniProt Q15831); details: compound 10.0 µM
# [13] = molecular target: BRSK2 (human) (UniProt Q8IWQ3); details: compound 10.0 µM
# [14] = molecular target: PDGFRB (human) (UniProt P09619); details: compound 10.0 µM
# [15] = molecular target: TGFBR2 (human) (UniProt P37173); details: compound 10.0 µM
# Chain of TGFBR2 (human) (P37173 whole entry, looked up): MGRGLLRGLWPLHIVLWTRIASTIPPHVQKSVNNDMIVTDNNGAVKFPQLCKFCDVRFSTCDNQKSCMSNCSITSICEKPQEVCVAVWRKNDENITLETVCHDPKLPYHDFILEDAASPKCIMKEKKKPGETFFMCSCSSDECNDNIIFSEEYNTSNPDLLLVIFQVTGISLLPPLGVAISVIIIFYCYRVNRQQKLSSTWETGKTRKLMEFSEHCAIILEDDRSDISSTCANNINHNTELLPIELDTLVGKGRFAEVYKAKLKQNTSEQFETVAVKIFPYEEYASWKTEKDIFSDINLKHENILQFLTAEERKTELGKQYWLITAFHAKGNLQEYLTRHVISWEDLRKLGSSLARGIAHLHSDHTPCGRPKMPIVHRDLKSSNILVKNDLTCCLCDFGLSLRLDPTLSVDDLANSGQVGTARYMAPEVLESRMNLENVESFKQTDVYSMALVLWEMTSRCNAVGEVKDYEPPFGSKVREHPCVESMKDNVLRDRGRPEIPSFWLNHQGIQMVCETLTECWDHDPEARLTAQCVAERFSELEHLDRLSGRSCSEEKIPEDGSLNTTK
# [16] = molecular target: RPS6KA4 KD2 (human) (UniProt O75676); details: compound 10.0 µM
# [17] = molecular target: TNK1 (human) (UniProt Q13470); details: compound 10.0 µM
# [18] = molecular target: MYLK4 (human) (UniProt Q86YV6); details: for kinase still bound, per cent of control: compound 10.0 µM
# Chain of MYLK4 (human) (Q86YV6 whole entry, looked up): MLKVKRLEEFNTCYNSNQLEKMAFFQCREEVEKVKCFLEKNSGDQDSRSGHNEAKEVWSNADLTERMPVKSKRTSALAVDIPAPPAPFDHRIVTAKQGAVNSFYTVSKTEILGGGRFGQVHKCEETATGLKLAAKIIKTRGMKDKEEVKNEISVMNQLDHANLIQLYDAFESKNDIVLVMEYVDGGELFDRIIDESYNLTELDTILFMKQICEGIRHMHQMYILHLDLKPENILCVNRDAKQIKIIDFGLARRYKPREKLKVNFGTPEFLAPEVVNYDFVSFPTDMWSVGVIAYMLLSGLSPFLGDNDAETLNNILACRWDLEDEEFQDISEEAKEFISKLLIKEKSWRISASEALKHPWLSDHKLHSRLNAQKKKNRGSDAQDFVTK
# [19] = molecular target: CSNK1D (human) (UniProt P48730); details: compound 10.0 µM
# [20] = test system: FLT3 (human), P36888 [D835Y]; details: compound 10.0 µM
# [21] = test system: FLT3 (human), P36888 [D835H]; details: compound 10.0 µM
# [22] = test system: FLT3 (human), P36888 [ITD]; details: compound 10.0 µM
# [23] = test system: FLT3 (human), P36888 [K663Q]; details: compound 10.0 µM
# [24] = molecular target: CLK4 (human) (UniProt Q9HAZ1); details: compound 10.0 µM
# [25] = molecular target: PIM1 (human) (UniProt P11309); details: compound 10.0 µM
# [26] = molecular target: RIPK4 (human) (UniProt P57078); details: compound 10.0 µM
# [27] = molecular target: MKNK1 (human) (UniProt Q9BUB5); details: compound 10.0 µM
# [28] = molecular target: CIT (human) (UniProt O14578); details: compound 10.0 µM
# [29] = molecular target: PLK4 (human) (UniProt O00444); details: compound 10.0 µM
# [30] = molecular target: MYLK3 (human) (UniProt Q32MK0); details: compound 10.0 µM
# [31] = molecular target: DAPK1 (human) (UniProt P53355); details: compound 10.0 µM
# [32] = molecular target: PRKD3 (human) (UniProt O94806); details: compound 10.0 µM
# [33] = molecular target: JAK1 JH2 pseudokinase (human) (UniProt P23458); details: compound 10.0 µM
# [34] = molecular target: FLT3 (human) (UniProt P36888); details: compound 10.0 µM
# [35] = molecular target: RPS6KA6 KD2 (human) (UniProt Q9UK32); details: compound 10.0 µM
# [36] = molecular target: MELK (human) (UniProt Q14680); details: compound 10.0 µM
# [37] = test system: KIT (human), P10721 [V559D/T670I]; details: compound 10.0 µM
# [38] = molecular target: NEK2 (human) (UniProt P51955); details: compound 10.0 µM
# [39] = molecular target: ULK2 (human) (UniProt Q8IYT8); details: compound 10.0 µM
# [40] = molecular target: DMPK (human) (UniProt Q09013); details: compound 10.0 µM
# Chain of DMPK (human) (Q09013 whole entry, looked up): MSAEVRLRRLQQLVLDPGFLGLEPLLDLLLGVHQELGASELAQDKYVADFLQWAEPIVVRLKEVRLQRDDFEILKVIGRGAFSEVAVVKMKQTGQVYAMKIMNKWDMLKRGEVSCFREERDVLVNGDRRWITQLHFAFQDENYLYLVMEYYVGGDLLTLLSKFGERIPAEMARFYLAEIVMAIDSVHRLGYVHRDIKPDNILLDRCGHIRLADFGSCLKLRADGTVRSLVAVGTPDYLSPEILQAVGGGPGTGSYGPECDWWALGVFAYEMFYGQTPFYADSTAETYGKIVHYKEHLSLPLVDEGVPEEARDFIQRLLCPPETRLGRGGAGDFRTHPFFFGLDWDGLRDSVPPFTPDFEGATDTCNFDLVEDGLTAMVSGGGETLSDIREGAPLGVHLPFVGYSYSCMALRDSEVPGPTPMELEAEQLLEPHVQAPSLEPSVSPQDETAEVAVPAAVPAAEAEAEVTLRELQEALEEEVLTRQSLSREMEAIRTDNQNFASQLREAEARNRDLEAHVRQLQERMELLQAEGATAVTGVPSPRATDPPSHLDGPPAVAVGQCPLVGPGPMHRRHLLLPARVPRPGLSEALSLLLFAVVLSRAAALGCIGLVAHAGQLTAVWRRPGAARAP
# [41] = molecular target: MAP2K3 (human) (UniProt P46734); details: compound 10.0 µM
# [42] = molecular target: MKNK2 (human) (UniProt Q9HBH9); details: compound 10.0 µM
Structure (SMILES),"kinase still bound, per cent of control [1] [%]","kinase still bound, per cent of control [4] [%]","kinase still bound, per cent of control [6] [%]","kinase still bound, per cent of control [7] [%]","kinase still bound, per cent of control [8] [%]","kinase still bound, per cent of control [9] [%]","kinase still bound, per cent of control [10] [%]","kinase still bound, per cent of control [11] [%]","kinase still bound, per cent of control [12] [%]","kinase still bound, per cent of control [13] [%]","kinase still bound, per cent of control [14] [%]","kinase still bound, per cent of control [15] [%]","kinase still bound, per cent of control [16] [%]","kinase still bound, per cent of control [17] [%]","kinase still bound, per cent of control [18] [%]","kinase still bound, per cent of control [19] [%]","kinase still bound, per cent of control [20] [%]","kinase still bound, per cent of control [21] [%]","kinase still bound, per cent of control [22] [%]","kinase still bound, per cent of control [23] [%]",other results
N=C1NC(=O)/C(=C/c2ccc(-c3cncc4ccccc34)o2)S1,18,2,14,3.3,30,16,2.2,6.9,6,7.1,5.4,0.85,27,14,0.05,3.4,0.45,3.3,1.2,8.1,"kinase still bound, per cent of control [2]: 9.8%; kinase still bound, per cent of control [3]: 20%; kinase still bound, per cent of control [5]: 2.6%; Kd [18]: 55 nM; kinase still bound, per cent of control [24]: 2.8%; kinase still bound, per cent of control [25]: 0.7%; kinase still bound, per cent of control [26]: 4.7%; kinase still bound, per cent of control [27]: 0.8%; kinase still bound, per cent of control [28]: 19%; kinase still bound, per cent of control [29]: 0.95%; kinase still bound, per cent of control [30]: 0.55%; kinase still bound, per cent of control [31]: 5.9%; kinase still bound, per cent of control [32]: 26%; kinase still bound, per cent of control [33]: 13%; kinase still bound, per cent of control [34]: 10%; kinase still bound, per cent of control [35]: 8.6%; kinase still bound, per cent of control [36]: 28%; kinase still bound, per cent of control [37]: 14%"
N=C1NC(=O)/C(=C/c2c[nH]c(=O)c(-c3ccc(N4CCNCC4)nc3)c2)S1,29,3.5,,14,13,7,9.4,32,,,,33,0.1,,,,23,,,33,"kinase still bound, per cent of control [38]: 13%; kinase still bound, per cent of control [39]: 4.8%; kinase still bound, per cent of control [24]: 16%; kinase still bound, per cent of control [40]: 18%; kinase still bound, per cent of control [25]: 4%; kinase still bound, per cent of control [31]: 2.7%; kinase still bound, per cent of control [36]: 27%"
CS(=O)(=O)Nc1ccc(-c2cncc(/C=C3\SC(=N)NC3=O)c2)cc1,,,13,,0.9,22,19,5.8,17,28,7.2,1.7,,28,29,1.4,3.8,8.7,25,,"kinase still bound, per cent of control [39]: 29%; kinase still bound, per cent of control [41]: 16%; kinase still bound, per cent of control [42]: 24%; kinase still bound, per cent of control [40]: 22%; kinase still bound, per cent of control [26]: 5.8%; kinase still bound, per cent of control [27]: 0.55%; kinase still bound, per cent of control [28]: 0.8%; kinase still bound, per cent of control [29]: 5.6%; kinase still bound, per cent of control [30]: 19%; kinase still bound, per cent of control [32]: 24%; kinase still bound, per cent of control [37]: 31%"
